In article PMC12024397, “Structure–Activity Study of the Antimicrobial Lipopeptide Humimycin A and Screening Against Multidrug-Resistant Staphylococcus aureus” (Antibiotics, 2025):
Converted amounts (≈) assume the structure as drawn. Structures can show the parent of a compound that is named as a salt. Non-standard residues stand in square brackets, D forms with d. Residues, ends and D or L forms follow the SMILES beside them. *: point of attachment. Tetradecanoyl(3S-OH) = CCCCCCCCCCC[C@H](O)CC(=O)*

Legend:
S. aureus ATCC 29213 = assay: microbe, parasite or virus in culture; conditions: Staphylococcus aureus, ATCC29213, read-out: Inhibition zone diameter
Procedure: Each agar well was loaded with 70 µL of a peptide solution (256 µg/mL).
For the agar diffusion assay, the bacterial strain was cultured overnight at 37 °C in the previously described media. Cultures were then inoculated at 1% (v/v) in a soft agar medium containing 1.5% (w/v) agar. Wells were created in the inoculated agar plates, and 70 µL of the humimycin analog solution (256 µg/mL) was added to each well. Kanamycin sulfate (256 µg/mL) and 5% dimethyl sulfoxide (DMSO) in water were included as positive and negative control, respectively.

[1] = system: Staphylococcus aureus ATCC 29213; format: cell-based
Excerpt: (§1) Analogs were serially diluted two-fold from stock solutions.

[2] = system: Staphylococcus aureus ATCC 43300; format: cell-based; conditions: ATCC 43300
Excerpt: as §1

[3] = system: Bacillus subtilis ATCC 23857; assay: MIC, broth microdilution; format: cell-based; conditions: 37 °C, 18–20 h, triplicate
Excerpt: as §1

[4] = system: Escherichia coli ATCC 25922; assay: MIC, broth microdilution; format: cell-based; conditions: 37 °C, 18–20 h, triplicate
Excerpt: as §1

[5] = system: Pseudomonas aeruginosa ATCC 27853; assay: MIC, broth microdilution; format: cell-based; conditions: 37 °C, 18–20 h, triplicate
Excerpt: as §1

[6] = system: Salmonella enterica ATCC 14028; assay: MIC, broth microdilution; format: cell-based; conditions: 37 °C, 18–20 h, triplicate
Excerpt: as §1

[7] = system: Staphylococcus and Streptococcus species; conditions: stereochemistry of the β-hydroxyl group; cited from earlier work
Excerpt: Among promising AMLPs of bacterial origin, humimycins show very attractive activities against S. aureus. Humimycins A 1 and B 2 are composed of a heptapeptide bearing an N-terminal β-hydroxy myristoyl lipid chain (Table 1). […] A novel approach was employed to discover humimycins by combining bioinformatics and chemical synthesis. Rather than depending on bacterial cultures to discover and produce ... || β-Hydroxymyristic acid is specifically incorporated into lipopeptides like surfactin by certain enzymes in Bacillus species. […] The presence of a hydroxyl group imparts some amphiphilicity, aiding interaction with bacterial mem ...

Compound: NC[C@H]1O[C@H](O[C@H]2[C@H](O)[C@@H](O[C@H]3O[C@H](CO)[C@@H](O)[C@H](N)[C@H]3O)[C@H](N)C[C@@H]2N)[C@H](O)[C@@H](O)[C@@H]1O [Kanamycin sulfate]
- zone of inhibition at 256 µg/mL (S. aureus ATCC 29213): 24 mm

Compound: CCCCCCCCCCC[C@H](O)CC(=O)N[C@@H](Cc1ccc(O)cc1)C(=O)N[C@@H](CO)C(=O)N[C@H](Cc1ccc(O)cc1)C(=O)N[C@@H](Cc1ccccc1)C(=O)N[C@@H](C(=O)N[C@H](C(=O)N[C@H](C(=O)O)C(C)C)C(C)C)[C@H](C)O [compound 1, reference compound] ({Tetradecanoyl(3S-OH)}-YS[dY]F[dT]VV-OH; N-terminus and C-terminus assumed)
- MIC [1]: 8 µg/mL (≈ 7.24 µM)
- MIC [2]: 16 µg/mL (≈ 14.5 µM)
- MIC [3]: - ^b (No antimicrobial activity was detected up to 256 µg/mL)
- MIC [4]: - (No antimicrobial activity was detected up to 256 µg/mL)
- MIC [5]: - (No antimicrobial activity was detected up to 256 µg/mL)
- MIC [6]: - (No antimicrobial activity was detected up to 256 µg/mL)
- potency of (S)-isomer relative to (R)-isomer [7]: four-fold more potent
